The assay deals with Akt. Description: Cytoblot assay for Akt activation in A549 cells. In kind it is cell-based, human. As to the method: The ability of RLip-EA-OH to increase phosphorylated Akt was assayed using an in-cell western blot, or cytoblot. A549 cells (human non-small cell lung cancer cell line) were selected because these cells can be manipulated to increase or decrease the level of phosphoryated Akt. The cells were inoculated onto culture plates and allowed to adhere to the bottom, then treated, fixed, and permeabilized. Following permeabilization, the cells were treated with antibodies specific for either phospho-Akt or total Akt. The cells were then treated with fluorescent secondary antibodies to quantify the amount of bound primary antibody. Total Akt and phospho-Akt were simultaneously detected.
A549 cells were plated in 384 well black-wall, clear-bottom, cell culture-treated microtiter plates at 70% confluence. Cells were incubated overnight to allow cell attachment. The media was changed to low serum (0.1%, fetal bovine serum [FBS]) and the cells were incubated for another 24 hours. Cells were treated with test compounds, fixed and permeabilized for the Akt assay. The fixative was 3.7% formaldehyde in phosphate buffered saline. The permeabilization buffer was 0.5% Triton X-100 in phosphate buffered saline. After permeabilization of cells, the amounts of total Akt and phosphorylated Akt at either of the two phosphorylation sites (threonine-308 and serine-473) were determined at 7 test concentrations, each performed in quadruplicate. The phospho-Akt data were normalized to total Akt and background subtracted for analysis.
Following overnight serum starvation to reduce basal Akt phosphorylation, cells were stimulated with vehicle, RLip-EA-OH, or RLip-OH. Cells were treated for 45 minutes or 3 hours and studied for phosphorylation at serine-473 or threonine 308, respectively.

On to `C[C@H](NC(=O)[C@H](CCC(=O)O)NC(=O)CCCC[C@@H]1CCSS1)C(=O)O` [RLip-EA-OH, N-(R)-lipoyl-L-glutamyl-L- alanine], for which, under “45 minutes of treatment”, the “increase in phosphorylated Akt at serine 473” value came to 3 fold. The “Akt phosphorylation at threonine-308” value (3 hours of treatment, compound alone) is “Increased Akt phosphorylation”. For the same molecule, where the note is “variant concentrations”, the “amount of phosphorylated Akt relative to total Akt” value was “increased the amount of phosphorylated Akt relative to total Akt in a dose dependent manner”.

For the origin of these results see patent US8772250B2, “Compositions and methods for treating ischemia and ischemia-reperfusion injury” (Ischemix, LLC, priority 2010, dated 2014).
